Experimental data: ChEMBL document CHEMBL1201862, “PubChem BioAssay data set” (2004)
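Five compound concentrations were applied to cells in 96-well plates for 48 hours; endpoints were derived by simple linear interpolation of the resulting dose-response curve. Here, GI50 denotes the concentration required for 50% inhibition of growth.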 Calls of active or inactive are those of the source. Cut-off read from the data, not from the text of the source: active = GI50 up to about 1.1 µM and inactive = higher.

How the values were obtained:
Experiment in all cases: NCI anticancer screen, dose series, 48 h
SK-MEL-5 = tested on: SK-MEL-5
SNB-75 = tested on: SNB-75
UO-31 = tested on: UO-31
SNB-78 = tested on: SNB-78
NCI-H522 = tested on: NCI-H522
786-0 = tested on: 786-0
UACC-257 = tested on: UACC-257
OVCAR-4 = tested on: OVCAR-4
COLO 205 = tested on: COLO 205
SN12C = tested on: SN12C
SF-268 = tested on: SF-268
A498 = tested on: A498
NCI-H460 = tested on: NCI-H460
U-251 = tested on: U-251
LOX IMVI = tested on: LOX IMVI
OVCAR-3 = tested on: OVCAR-3
MOLT-4 = tested on: MOLT-4
HOP-62 = tested on: HOP-62
NCI-H226 = tested on: NCI-H226

SMILES | GI50 (SK-MEL-5) | GI50 (SNB-75) | GI50 (UO-31) | GI50 (SNB-78) | GI50 (NCI-H522) | GI50 (786-0) | GI50 (UACC-257) | GI50 (OVCAR-4) | GI50 (COLO 205) | GI50 (SN12C) | GI50 (SF-268) | GI50 (A498) | GI50 (NCI-H460) | GI50 (U-251) | GI50 (LOX IMVI) | GI50 (OVCAR-3) | GI50 (MOLT-4) | GI50 (HOP-62) | GI50 (NCI-H226)
COc1ccccc1/C=C(\NC(=O)c1ccccc1)c1nc2ccccc2[nH]1 | 23.3 µM (inactive) | 31.5 µM (inactive) | 63.8 µM (inactive) | 53.3 µM (inactive) | 30.3 µM (inactive) | 40.1 µM (inactive) | 31 µM (inactive) | 35 µM (inactive) | 28.8 µM (inactive) | 48.8 µM (inactive) | 37.3 µM (inactive) | 56 µM (inactive) | 50.8 µM (inactive) | 47.2 µM (inactive) | 52.4 µM (inactive) | 44.5 µM (inactive) | 36.7 µM (inactive) | – | –
Oc1cc2c(cc1O)-c1[nH]ncc1CC2 | 35.1 µM (inactive) | 16.6 µM (inactive) | 18.4 µM (inactive) | 80.4 µM (inactive) | 11.7 µM (inactive) | 39.6 µM (inactive) | 58.7 µM (inactive) | – | 26.1 µM (inactive) | 49 µM (inactive) | 25.6 µM (inactive) | 25.4 µM (inactive) | 43.3 µM (inactive) | 18.2 µM (inactive) | 33.5 µM (inactive) | – | 22.4 µM (inactive) | 55.5 µM (inactive) | 18.6 µM (inactive)
O=C(Nc1nc2ncn(CCI)c2c(=O)[nH]1)c1ccccc1 | > 100 µM (inactive) | 20.5 µM (inactive) | > 90.4 µM (inactive) | > 56.1 µM (inactive) | 28.3 µM (inactive) | 46.1 µM (inactive) | > 100 µM (inactive) | > 100 µM (inactive) | > 100 µM (inactive) | 59.3 µM (inactive) | 21.5 µM (inactive) | 16 µM (inactive) | > 100 µM (inactive) | 28.3 µM (inactive) | > 100 µM (inactive) | 52.8 µM (inactive) | > 100 µM (inactive) | 30.1 µM (inactive) | 23.4 µM (inactive)
OC1(C(Sc2ccccc2)Sc2ccccc2)CCCCCC1 | 16.1 µM (inactive) | 33.4 µM (inactive) | 3.13 µM (inactive) | 74.1 µM (inactive) | 11.5 µM (inactive) | 22.4 µM (inactive) | 26.9 µM (inactive) | 6.19 µM (inactive) | 23.6 µM (inactive) | 16.2 µM (inactive) | 33.1 µM (inactive) | 34 µM (inactive) | 28.2 µM (inactive) | 21.8 µM (inactive) | 19.3 µM (inactive) | 20.9 µM (inactive) | 28.6 µM (inactive) | 21.9 µM (inactive) | –
CC(=O)OC1CCC2C(=CCC3C2(C)C(=O)CC2(C)C(C4(C)OC(C(C)C)=CC4=O)C(O)CC32C)C1(C)C (stereo not drawn) | 23.5 µM (inactive) | 28.4 µM (inactive) | 40.3 µM (inactive) | 78.3 µM (inactive) | 35.5 µM (inactive) | > 100 µM (inactive) | – | – | 56 µM (inactive) | 54.5 µM (inactive) | 28.1 µM (inactive) | > 100 µM (inactive) | 27 µM (inactive) | 39.4 µM (inactive) | – | > 10 µM (inactive) | 32.4 µM (inactive) | > 100 µM (inactive) | 75 µM (inactive)
CCCCc1c2c(nc3c1CCc1cc(C=O)c(N)nc1-3)/C(=C/c1ccccc1)CCC2 | > 100 µM (inactive) | > 100 µM (inactive) | > 100 µM (inactive) | > 100 µM (inactive) | > 100 µM (inactive) | > 100 µM (inactive) | > 100 µM (inactive) | > 100 µM (inactive) | 17 µM (inactive) | > 100 µM (inactive) | > 100 µM (inactive) | 19.9 µM (inactive) | 40.8 µM (inactive) | > 100 µM (inactive) | > 100 µM (inactive) | > 100 µM (inactive) | 52.2 µM (inactive) | > 100 µM (inactive) | > 100 µM (inactive)
N#CC(C(=O)C(=O)Nc1c(Cl)cccc1Cl)c1ccccc1 (stereo not drawn) | > 10 µM (inactive) | > 10 µM (inactive) | > 10 µM (inactive) | > 10 µM (inactive) | > 10 µM (inactive) | > 10 µM (inactive) | > 10 µM (inactive) | > 10 µM (inactive) | > 10 µM (inactive) | > 10 µM (inactive) | > 10 µM (inactive) | > 10 µM (inactive) | > 10 µM (inactive) | > 10 µM (inactive) | 0.356 µM (active) | > 10 µM (inactive) | > 10 µM (inactive) | > 10 µM (inactive) | > 10 µM (inactive)
CC(=O)OCSc1ncnc2c1ncn2CN1CCOCC1 | 49.4 µM (inactive) | 13.2 µM (inactive) | 8.38 µM (inactive) | > 100 µM (inactive) | 3.27 µM (inactive) | 7.91 µM (inactive) | 53.5 µM (inactive) | 23 µM (inactive) | 18.8 µM (inactive) | 60.1 µM (inactive) | 31.3 µM (inactive) | > 100 µM (inactive) | 18.2 µM (inactive) | 47.8 µM (inactive) | 2.03 µM (inactive) | 7.23 µM (inactive) | 4.12 µM (inactive) | 10 µM (inactive) | > 100 µM (inactive)
C=CCN1/C(=C2\SC(=S)N(c3ccc(C)cc3)C2=O)Sc2c1ncn(C)c2=O | 38.4 µM (inactive) | 40.7 µM (inactive) | > 100 µM (inactive) | 90.6 µM (inactive) | 46.7 µM (inactive) | 71.1 µM (inactive) | > 100 µM (inactive) | 94.2 µM (inactive) | 96.8 µM (inactive) | > 100 µM (inactive) | > 100 µM (inactive) | 51.1 µM (inactive) | > 100 µM (inactive) | > 100 µM (inactive) | > 100 µM (inactive) | – | > 100 µM (inactive) | 69.2 µM (inactive) | 78.5 µM (inactive)
CC1OC(CC2C=CCc3c(O)c4c(c(O)c32)C(=O)c2ccccc2C4=O)CC(NC(=O)C(F)(F)F)C1O (stereo not drawn) | 11.2 µM (inactive) | 2.27 µM (inactive) | 20 µM (inactive) | 4.18 µM (inactive) | 18.1 µM (inactive) | 11.1 µM (inactive) | 7.93 µM (inactive) | 2.79 µM (inactive) | 13.8 µM (inactive) | 5.5 µM (inactive) | 10.3 µM (inactive) | 4.69 µM (inactive) | 5.25 µM (inactive) | 3.94 µM (inactive) | 6.73 µM (inactive) | 6.76 µM (inactive) | 7.21 µM (inactive) | 6.49 µM (inactive) | 13.7 µM (inactive)
COc1cc(/C=C/c2ccncc2)cc(OC)c1OC | 63.2 µM (inactive) | 39.2 µM (inactive) | 24.4 µM (inactive) | 96.2 µM (inactive) | 32.3 µM (inactive) | 72.4 µM (inactive) | > 100 µM (inactive) | 76.9 µM (inactive) | > 100 µM (inactive) | 96.2 µM (inactive) | > 100 µM (inactive) | 30.5 µM (inactive) | > 100 µM (inactive) | > 100 µM (inactive) | 72.4 µM (inactive) | 94.2 µM (inactive) | 65.8 µM (inactive) | 53.6 µM (inactive) | > 100 µM (inactive)
O=C(Nc1ccccc1[N+](=O)[O-])C(=O)C(C(=O)c1ccccc1-c1ccccc1)C1OC(=O)c2ccccc21 (stereo not drawn) | 18 µM (inactive) | 16.9 µM (inactive) | 15.6 µM (inactive) | 20.1 µM (inactive) | 12.5 µM (inactive) | 14.7 µM (inactive) | 16.6 µM (inactive) | 24.1 µM (inactive) | 16.1 µM (inactive) | 14.6 µM (inactive) | 14.3 µM (inactive) | 21.7 µM (inactive) | 15.9 µM (inactive) | 11.6 µM (inactive) | 16.3 µM (inactive) | 14 µM (inactive) | 16 µM (inactive) | 17.5 µM (inactive) | 6.1 µM (inactive)
CCOC(=O)NC/C=C/CO | > 100 µM (inactive) | > 100 µM (inactive) | > 100 µM (inactive) | > 100 µM (inactive) | > 100 µM (inactive) | > 100 µM (inactive) | > 100 µM (inactive) | > 100 µM (inactive) | > 100 µM (inactive) | > 100 µM (inactive) | > 100 µM (inactive) | > 100 µM (inactive) | > 100 µM (inactive) | > 100 µM (inactive) | – | – | > 100 µM (inactive) | > 100 µM (inactive) | > 100 µM (inactive)
Cc1cc(C)nc(NS(=O)(=O)c2ccc(Nc3c4ccccc4nc4c(C(=O)Nc5ccc(S(N)(=O)=O)cc5)cccc34)cc2)n1 | > 100 µM (inactive) | 25.8 µM (inactive) | 37 µM (inactive) | > 100 µM (inactive) | 30.8 µM (inactive) | > 100 µM (inactive) | > 100 µM (inactive) | 85.5 µM (inactive) | > 100 µM (inactive) | > 100 µM (inactive) | 50.9 µM (inactive) | 43.3 µM (inactive) | 88.1 µM (inactive) | 58.3 µM (inactive) | 75.9 µM (inactive) | 66.5 µM (inactive) | > 100 µM (inactive) | > 100 µM (inactive) | –
CCN(CCCl)CCCNc1c2ccccc2nc2ccc(OC)cc12 | 0.388 µM (active) | 0.635 µM (active) | 1.29 µM (inactive) | 0.357 µM (active) | 0.144 µM (active) | 0.114 µM (active) | 1.16 µM (inactive) | 0.682 µM (active) | 0.0964 µM (active) | 0.0548 µM (active) | 0.122 µM (active) | 1.19 µM (inactive) | 0.0802 µM (active) | 0.199 µM (active) | 0.129 µM (active) | 1.1 µM (active) | 0.0158 µM (active) | 0.605 µM (active) | 0.0678 µM (active)
